Laboratory results taken from US10544120B2, “Biaryl kinase inhibitors” (BRISTOL-MYERS SQUIBB COMPANY, priority 2015, dated 2020).

Biological target: GST-Xa-hAAK1 (Homo sapiens (Human), UniProt Q2M2I8)
Test: AAK1 Kinase Assay
Format: biochemical
Details: bacterially expressed GST-Xa-hAAK1 3.5 nM; ATP 22 μM; fluoresceinated peptide 1.5 μM; 3 hours at room temperature; Caliper LabChip 3000
Procedure: The assays were performed in U-bottom 384-well plates. […] The reactions were initiated by the combination of bacterially expressed, GST-Xa-hAAK1 with substrates and test compounds. The reactions were incubated at room temperature for 3 hours and terminated by adding 60 μl of 35 mM EDTA buffer to each sample. The reactions were analyzed on the Caliper LabChip 3000 (Caliper, Hopkinton, Mass.) by electrophoretic separation of the fluorescent substrate and phosphorylated product. […] Compounds were dissolved at 10 mM in dimethylsulfoxide (DMSO) and evaluated at eleven concentrations. IC50 values were derived by non-linear regression analysis.

GST-Xa-hAAK1, sequence (Q2M2I8 whole entry): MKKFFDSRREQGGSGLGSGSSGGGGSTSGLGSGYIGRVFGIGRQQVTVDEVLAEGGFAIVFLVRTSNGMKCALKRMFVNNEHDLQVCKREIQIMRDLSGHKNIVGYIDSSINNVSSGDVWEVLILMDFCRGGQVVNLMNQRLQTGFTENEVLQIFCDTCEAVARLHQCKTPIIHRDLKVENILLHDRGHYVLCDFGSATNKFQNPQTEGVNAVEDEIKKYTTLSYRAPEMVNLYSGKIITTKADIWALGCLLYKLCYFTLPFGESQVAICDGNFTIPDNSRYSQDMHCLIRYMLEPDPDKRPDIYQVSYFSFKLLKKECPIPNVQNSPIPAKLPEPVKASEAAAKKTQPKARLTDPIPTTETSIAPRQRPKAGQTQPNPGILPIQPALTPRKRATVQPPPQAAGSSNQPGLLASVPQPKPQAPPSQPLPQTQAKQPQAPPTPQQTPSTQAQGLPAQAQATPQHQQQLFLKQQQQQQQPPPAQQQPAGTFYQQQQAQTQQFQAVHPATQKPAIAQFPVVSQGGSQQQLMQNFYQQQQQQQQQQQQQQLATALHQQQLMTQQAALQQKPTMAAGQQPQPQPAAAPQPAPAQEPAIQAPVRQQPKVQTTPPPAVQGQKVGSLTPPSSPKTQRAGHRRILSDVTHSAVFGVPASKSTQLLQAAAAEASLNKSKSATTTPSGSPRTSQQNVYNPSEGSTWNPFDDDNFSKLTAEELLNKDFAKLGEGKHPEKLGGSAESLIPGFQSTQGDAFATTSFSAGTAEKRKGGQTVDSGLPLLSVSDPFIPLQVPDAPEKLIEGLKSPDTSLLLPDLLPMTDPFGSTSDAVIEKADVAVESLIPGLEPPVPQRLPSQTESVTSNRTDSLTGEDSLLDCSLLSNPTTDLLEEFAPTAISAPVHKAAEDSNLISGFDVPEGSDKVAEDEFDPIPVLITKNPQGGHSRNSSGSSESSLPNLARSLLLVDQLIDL

| SMILES | IC50 |
| --- | --- |
| CC(C)CC(=O)Nc1cc(-c2ccc(OC[C@@](C)(N)CC(C)C)c(C(F)(F)F)c2)ccn1 [Example 395, (S)-N-(4-(4-((2-amino-2,4-dimethylpentyl)oxy)-3-(trifluoromethyl)phenyl)pyridin-2-yl)-3-methylbutanamide] | 0.7 nM |
| CCC(C)CC(=O)Nc1cc(-c2ccc(OC[C@@](C)(N)CC(C)C)c(C(F)(F)F)c2)ccn1 (stereo partly drawn) [Example 396, N-(4-(4-(((S)-2-amino-2,4-dimethylpentyl)oxy)-3-(trifluoromethyl)phenyl)pyridin-2-yl)-3-methylpentanamide] | 1.6 nM |
| CC(C)CCC(=O)Nc1cc(-c2ccc(OC[C@@](C)(N)CC(C)C)c(C(F)(F)F)c2)ccn1 [Example 397, (S)-N-(4-(4-((2-amino-2,4-dimethylpentyl)oxy)-3-(trifluoromethyl)phenyl)pyridin-2-yl)-4-methylpentanamide] | 0.7 nM |
| Cc1nc(-c2ccnc(N)c2)ccc1OC[C@@](C)(N)CC(C)C [Example 422, (S)-5-((2-amino-2,4-dimethylpentyl)oxy)-6-methyl-[2,4′-bipyridin]-2′-amine] | 3.5 nM |
| Cc1cc(-c2cc(N)ncn2)ccc1OC[C@@](C)(N)CC(C)C [Example 431, (S)-6-(4-((2-amino-2,4-dimethylpentyl)oxy)-3-methylphenyl)pyrimidin-4-amine] | 5.4 nM |
| COC(=O)Nc1cc(-c2ccc(OC[C@@](C)(N)CC(C)C)c(C(F)(F)F)c2)ncn1 [Example 432, (S)-methyl (6-(4-((2-amino-2,4-dimethylpentyl)oxy)-3-(trifluoromethyl)phenyl)pyrimidin-4-yl)carbamate] | 0.7 nM |
| COC(=O)Nc1cc(-c2ccc(OC[C@@](C)(N)CC(C)C)c(C)c2)ncn1 [Example 433, (S)-methyl (6-(4-((2-amino-2,4-dimethylpentyl)oxy)-3-methylphenyl)pyrimidin-4-yl)carbamate] | 1.8 nM |
| Cc1cc(-c2cc(F)c(OC[C@@](C)(N)CC(C)C)cc2F)ncn1 [Example 435, (S)-1-(2,5-difluoro-4-(6-methylpyrimidin-4-yl)phenoxy)-2,4-dimethylpentan-2-amine] | 63 nM |
| Cc1cc(-c2ccc(OC[C@@](C)(N)CC(C)C)c(C#N)c2)ncn1 [Example 436, (S)-2-((2-amino-2,4-dimethylpentyl)oxy)-5-(6-methylpyrimidin-4-yl)benzonitrile] | 6.2 nM |
| COC(=O)Nc1cc(-c2cnc(OC[C@@](C)(N)CC(C)C)c(Cl)c2)ncn1 [Example 437, (S)-methyl (6-(6-((2-amino-2,4-dimethylpentyl)oxy)-5-chloropyridin-3-yl)pyrimidin-4-yl)carbamate] | 2.2 nM |

The next lines start with the values.

| IC50 | SMILES |
| --- | --- |
| 6.5 nM | COC(=O)Nc1cc(-c2cnc(OC[C@@](C)(N)CC(C)C)c(C)c2)ncn1 [Example 438, (S)-methyl (6-(6-((2-amino-2,4-dimethylpentyl)oxy)-5-methylpyridin-3-yl)pyrimidin-4-yl)carbamate] |
| 128 nM | COc1cc(-c2ccc(OC[C@@](C)(N)CC(C)C)c(C#N)c2)ncn1 [Example 439, (S)-2-((2-amino-2,4-dimethylpentyl)oxy)-5-(6-methoxypyrimidin-4-yl)benzonitrile] |
| 308 nM | COc1cc(-c2ccc(OC[C@@](C)(N)CC(C)C)c(C(F)(F)F)c2)ncn1 [Example 440, (S)-1-(4-(6-methoxypyrimidin-4-yl)-2-(trifluoromethyl)phenoxy)-2,4-dimethylpentan-2-amine] |
| 15 nM | CC(C)C[C@](C)(N)COc1ccc(-c2cc(Cl)ncn2)cc1C#N [Example 441, (S)-2-((2-amino-2,4-dimethylpentyl)oxy)-5-(6-chloropyrimidin-4-yl)benzonitrile] |
| 19 nM | CC(C)C[C@](C)(N)COc1ccc(-c2cc(Cl)ncn2)cc1C(F)(F)F [Example 442, (S)-1-(4-(6-chloropyrimidin-4-yl)-2-(trifluoromethyl)phenoxy)-2,4-dimethylpentan-2-amine] |
| 46 nM | CCc1cc(-c2ccc(OC[C@@](C)(N)CC(C)C)c(C#N)c2)ncn1 [Example 443, (S)-2-((2-amino-2,4-dimethylpentyl)oxy)-5-(6-ethylpyrimidin-4-yl)benzonitrile] |
